Measured values as given in patent US10927111B2, “Inhibitors of RAF kinases” (Kinnate Biopharma Inc., priority 2019, dated 2021).
Read-outs that look alike come from different tables or passages of the source.

Molecular target: human RAF1 (Homo sapiens (Human), UniProt P04049)
Assay: Protein kinase assay (radiometric 33P-ATP, MEK1 (K97R) substrate)
Assay type: biochemical
Conditions: read-out: RAF-1 IC50
Description: Protein kinase assay: Assay platform was used to measure kinase/inhibitor interactions as described previously (Anastassiadis et al., 2011). In brief, for each reaction, kinase and substrate were mixed in a buffer containing 20 mM HEPES (pH 7.5), 10 mM MgCl2, 1 mM EGTA, 0.02% Brij35, 0.02 mg/mL BSA, 0.1 mM Na3VO4, 2 mM DTT, and 1% DMSO. All compounds were solubilized in DMSO. Compounds were then added to each reaction mixture via acoustic dispense using an ECHO 550 nanoliter dispenser. For human RAF1 testing, human MEK1 (K97R) was used as a substrate at a concentration of 3 micromolar, with a final ATP concentration of 10 micromolar. For human BRAF testing, human MEK1 (K97R) was used as a substrate at 1 micromolar concentration, with a final ATP concentration of 25 micromolar. […] After a 20-min incubation, ATP (Sigma-Aldrich, St. Louis, Mo. 63178) and [g33P] ATP (specific activity 10 microCi/microliter) purchased at PerkinElmer (Boston, Mass., 02118 Cat #BLU 003H250UC) were added at a final total concentration of 10 mM. Reactions were carried out at room temperature for 2 hr and spotted onto P81 ionexchange cellulose chromatography paper (Reaction Biology). Filter paper was washed in 0.75% phosphoric acid to remove unincorporated ATP. The percent remaining kinase activity relative to a vehicle-containing (DMSO) kinase reaction was calculated for each kinase/inhibitor pair. IC50 values were calculated using Prism 5 (GraphPad).

[1] = human MEK1 (K97R) substrate 3 micromolar, ATP 10 micromolar, 10-dose IC50 mode

Sequence of human RAF1 (P04049 whole entry): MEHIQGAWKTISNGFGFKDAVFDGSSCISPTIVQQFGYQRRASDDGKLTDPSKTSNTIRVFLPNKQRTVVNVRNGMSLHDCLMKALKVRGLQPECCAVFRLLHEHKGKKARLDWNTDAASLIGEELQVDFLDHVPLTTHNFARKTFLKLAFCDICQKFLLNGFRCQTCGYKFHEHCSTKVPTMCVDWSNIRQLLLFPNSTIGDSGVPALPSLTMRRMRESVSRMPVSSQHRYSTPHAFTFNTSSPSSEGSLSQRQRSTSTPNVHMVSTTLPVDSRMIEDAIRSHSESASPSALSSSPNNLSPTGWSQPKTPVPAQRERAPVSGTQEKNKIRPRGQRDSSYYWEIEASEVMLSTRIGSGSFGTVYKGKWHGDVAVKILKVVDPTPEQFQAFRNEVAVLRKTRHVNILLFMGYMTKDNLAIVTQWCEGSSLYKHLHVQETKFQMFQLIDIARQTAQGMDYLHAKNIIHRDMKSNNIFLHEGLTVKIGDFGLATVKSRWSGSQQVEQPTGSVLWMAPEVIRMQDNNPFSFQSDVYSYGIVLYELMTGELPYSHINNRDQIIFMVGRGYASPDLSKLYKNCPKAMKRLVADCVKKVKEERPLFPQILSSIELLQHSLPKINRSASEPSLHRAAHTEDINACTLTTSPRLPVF

SMILES | IC50 [1] [nM] | IC50 [nM]
CNc1ncc2cc(-c3cc(NC(=O)N4CCC(C(F)(F)F)C4)ccc3C)cnc2n1 (stereo in doubt) [Example 54, (3R)—N-[4-methyl-3-[2-(methylamino)pyrido[2,3-d]pyrimidin-6-yl]phenyl]3(trifluoromethyl)pyrrolidine-1-carboxamide] | ≤ 10 | 
CNc1ncc2cc(-c3cc(NC(=O)N4CCC(C(F)(F)F)C4)ccc3C)cnc2n1 (stereo in doubt) [Example 55, (3S)—N-[4-methyl-3-[2-(methylamino)pyrido[2,3-d]pyrimidin-6-yl]phenyl]-3-(trifluoromethyl)pyrrolidine-1-carboxamide] |  | ≤ 10
CNc1ncc2cc(-c3cc(NC(=O)N4CC[C@@H](C(F)(F)F)C4)c(F)cc3C)c(C)nc2n1 [Example 2, (R)-N-(2-fluoro-4-methyl-5-(7-methyl-2-(methylamino)pyrido[2,3-d]pyrimidin-6-yl)phenyl)-3-(trifluoromethyl)pyrrolidine-1-carboxamide] | ≤ 10 | 
CNc1ncc2cc(-c3cc(NC(=O)N4CC=C(C(F)(F)F)C4)c(F)cc3C)c(C)nc2n1 [Example 3, N-(2-fluoro-4-methyl-5-(7-methyl-2-(methylamino)pyrido[2,3-d]pyrimidin-6-yl)phenyl)-3-(trifluoromethyl)-2,5-dihydro-1H-pyrrole-1-carboxamide] | ≤ 10 | 
CNc1ncc2cc(-c3cc(NC(=O)c4ccnc(C(F)(F)F)c4)c(F)cc3C)c(C)nc2n1 [Example 7, N-[2-fluoro-4-methyl-5-[7-methyl-2-(methylamino)pyrido[2,3-d]pyrimidin-6-yl]phenyl]-2-(trifluoromethyl) pyridine-4-carboxamide] | ≤ 10 | 
CNc1ncc2cc(-c3cc(NC(=O)N4CCO[C@H](C(F)(F)F)C4)c(F)cc3C)c(C)nc2n1 [Example 11, (2S)-N-[2-fluoro-4-methyl-5-[7-methyl-2-(methylamino)pyrido[2,3-d]pyrimidin-6-yl]phenyl]-2-(trifluoromethyl)morpholine-4-carboxamide] | ≤ 10 | 
CNc1ncc2cc(-c3cc(NC(=O)N4CCO[C@H](C(F)(F)F)C4)ccc3C)c(C)nc2n1 [Example 13] | ≤ 10 | 
CNc1ncc2cc(-c3cc(NC(=O)N4CCC(C(F)(F)F)C4)ccc3C)c(C)nc2n1 (centres unmarked) [Example 14, N-(4-methyl-3-(7-methyl-2-(methylamino)pyrido[2,3-d]pyrimidin-6-yl)phenyl)-3-(trifluoromethyl)pyrrolidine-1-carboxamide] | ≤ 10 | 

Further lines, results first:

IC50 [1] [nM] | IC50 [nM] | SMILES
 | 10 to 100 | CNc1ncc2cc(-c3cc(NC(=O)N4CC[C@@H](SC(F)(F)F)C4)ccc3C)c(C)nc2n1 [Example 4]
 | 10 to 100 | CNc1ncc2cc(-c3cc(NC(=O)N4CC[C@H](SC(F)(F)F)C4)ccc3C)c(C)nc2n1 [Example 5]
 | ≤ 10 | CNc1ncc2cc(-c3cc(NC(=O)c4ccnc(C(F)(F)F)c4)ccc3C)c(C)nc2n1 [Example 6, N-[4-methyl-3-[7-methyl-2-(methylamino)pyrido[2,3-d]pyrimidin-6-yl]phenyl]-2-(trifluoromethyl)pyridine-4-carboxamide]
≤ 10 |  | CNc1ncc2cc(-c3cc(NC(=O)N4CCO[C@@H](C(F)(F)F)C4)c(F)cc3C)c(C)nc2n1 [Example 10, (2R)-N-[2-fluoro-4-methyl-5-[7-methyl-2-(methylamino)pyrido[2,3-d]pyrimidin-6-yl]phenyl]-2-(trifluoromethyl)morpholine-4-carboxamide]
≤ 10 |  | CNc1ncc2cc(-c3cc(NC(=O)N4CCO[C@@H](C(F)(F)F)C4)ccc3C)c(C)nc2n1 [Example 12, (2R)-N-[4-methyl-3-[7-methyl-2-(methylamino)pyrido[2,3-d]pyrimidin-6-yl]phenyl]-2-(trifluoromethyl)morpholine-4-carboxamide]
≤ 10 |  | CNc1ncc2cc(-c3cc(NC(=O)N4CCC5(CCC(F)(F)C5)C4)c(F)cc3C)c(C)nc2n1 (centres unmarked) [Example 15, 7,7-difluoro-N-(2-fluoro-4-methyl-5-(7-methyl-2-(methylamino)pyrido[2,3-d]pyrimidin-6-yl)phenyl)-2-azaspiro[4.4]nonane-2-carboxamide]
